Legend:
Assay type in all cases: functional, organism-based
Pseudomonas aeruginosa [1] = assay: Antibacterial activity against Gentamicin-resistant Pseudomonas aeruginosa assessed as susceptible isolates at minimum inhibitory concentration of 8 ug/ml by CLSI broth microdilution method; set-up: scale not given: the % may be the effect or the level left
Pseudomonas aeruginosa [2] = assay: Antibacterial activity against Levofloxacin-resistant Pseudomonas aeruginosa assessed as susceptible isolates at minimum inhibitory concentration of >16 ug/ml by CLSI broth microdilution method; set-up: scale not given: the % may be the effect or the level left
Pseudomonas aeruginosa [3] = assay: Antibacterial activity against Meropenem-resistant Pseudomonas aeruginosa assessed as susceptible isolates at minimum inhibitory concentration of 2 ug/ml by CLSI broth microdilution method; set-up: scale not given: the % may be the effect or the level left
Pseudomonas aeruginosa [4] = assay: Antibacterial activity against Piperacillin-resistant Pseudomonas aeruginosa assessed as susceptible isolates at minimum inhibitory concentration of 0.5 ug/ml by CLSI broth microdilution method; set-up: scale not given: the % may be the effect or the level left
Pseudomonas aeruginosa [5] = assay: Antibacterial activity against MDR3 Pseudomonas aeruginosa assessed as susceptible isolates at minimum inhibitory concentration of 2 ug/ml by CLSI broth microdilution method; set-up: scale not given: the % may be the effect or the level left
Pseudomonas aeruginosa [6] = assay: Antibacterial activity against MDR Pseudomonas aeruginosa assessed as susceptible isolates at minimum inhibitory concentration of 0.5 ug/ml by CLSI broth microdilution method; set-up: scale not given: the % may be the effect or the level left
Pseudomonas aeruginosa [7] = assay: Antibacterial activity against MDR Pseudomonas aeruginosa assessed as susceptible isolates at minimum inhibitory concentration of 2 ug/ml by CLSI broth microdilution method; set-up: scale not given: the % may be the effect or the level left
Pseudomonas aeruginosa [8] = assay: Antibacterial activity against Pseudomonas aeruginosa assessed as intermediate isolates at 4 ug/ml by CLSI broth microdilution method
Serratia marcescens [9] = assay: Antibacterial activity against Serratia marcescens assessed as susceptible isolates at minimum inhibitory concentration of 2 ug/ml by CLSI broth microdilution method; set-up: scale not given: the % may be the effect or the level left
Serratia marcescens [10] = assay: Antibacterial activity against Serratia marcescens assessed as susceptible isolates at minimum inhibitory concentration of 0.5 ug/ml by CLSI broth microdilution method; set-up: scale not given: the % may be the effect or the level left
Serratia marcescens [11] = assay: Antibacterial activity against Serratia marcescens assessed as susceptible isolates at minimum inhibitory concentration of 0.12 ug/ml by CLSI broth microdilution method; set-up: scale not given: the % may be the effect or the level left
Proteus mirabilis = assay: Antibacterial activity against Proteus mirabilis assessed as susceptible isolates at minimum inhibitory concentration of 8 ug/ml by CLSI broth microdilution method; set-up: scale not given: the % may be the effect or the level left
Enterobacter cloacae [12] = assay: Antibacterial activity against Enterobacter cloacae assessed as susceptible isolates at minimum inhibitory concentration of 4 ug/ml by CLSI broth microdilution method; set-up: scale not given: the % may be the effect or the level left
Enterobacter cloacae [13] = assay: Antibacterial activity against Enterobacter cloacae assessed as susceptible isolates at minimum inhibitory concentration of 2 ug/ml by CLSI broth microdilution method; set-up: scale not given: the % may be the effect or the level left
Enterobacter cloacae [14] = assay: Antibacterial activity against Enterobacter cloacae assessed as susceptible isolates at minimum inhibitory concentration of 1 ug/ml by CLSI broth microdilution method; set-up: scale not given: the % may be the effect or the level left
Enterobacter cloacae [15] = assay: Antibacterial activity against Enterobacter cloacae assessed as susceptible isolates at minimum inhibitory concentration of 0.12 ug/ml by CLSI broth microdilution method; set-up: scale not given: the % may be the effect or the level left
Klebsiella pneumoniae [16] = assay: Antibacterial activity against ESBL-producing Klebsiella pneumoniae assessed as susceptible isolates at minimum inhibitory concentration of 8 ug/ml by CLSI broth microdilution method; set-up: scale not given: the % may be the effect or the level left
Klebsiella pneumoniae [17] = assay: Antibacterial activity against ESBL-producing Klebsiella pneumoniae assessed as susceptible isolates at minimum inhibitory concentration of 0.25 ug/ml by CLSI broth microdilution method; set-up: scale not given: the % may be the effect or the level left
Klebsiella pneumoniae [18] = assay: Antibacterial activity against ESBL-producing Klebsiella pneumoniae assessed as susceptible isolates at minimum inhibitory concentration of 0.12 ug/ml by CLSI broth microdilution method; set-up: scale not given: the % may be the effect or the level left
Klebsiella pneumoniae [19] = assay: Antibacterial activity against ESBL-producing Klebsiella pneumoniae assessed as susceptible isolates at minimum inhibitory concentration of <=0.06 ug/ml by CLSI broth microdilution method; set-up: scale not given: the % may be the effect or the level left
Pseudomonas aeruginosa [20] = assay: Antibacterial activity against Pseudomonas aeruginosa assessed as susceptible isolates at minimum inhibitory concentration of 4 ug/ml by CLSI broth microdilution method; set-up: scale not given: the % may be the effect or the level left
Escherichia coli [21] = assay: Antibacterial activity against ESBL-producing Escherichia coli assessed as susceptible isolates at minimum inhibitory concentration of 2 ug/ml by CLSI broth microdilution method; set-up: scale not given: the % may be the effect or the level left
Escherichia coli [22] = assay: Antibacterial activity against ESBL-producing Escherichia coli assessed as susceptible isolates at minimum inhibitory concentration of 0.25 ug/ml by CLSI broth microdilution method; set-up: scale not given: the % may be the effect or the level left
Escherichia coli [23] = assay: Antibacterial activity against ESBL-producing Escherichia coli assessed as susceptible isolates at minimum inhibitory concentration of 0.12 ug/ml by CLSI broth microdilution method; set-up: scale not given: the % may be the effect or the level left
Klebsiella oxytoca [24] = assay: Antibacterial activity against Klebsiella oxytoca assessed as susceptible isolates at minimum inhibitory concentration of 16 ug/ml by CLSI broth microdilution method; set-up: scale not given: the % may be the effect or the level left
[25] = test system: Stenotrophomonas maltophilia; assay: Antibacterial activity against Stenotrophomonas maltophilia assessed as susceptible isolates at minimum inhibitory concentration of <=0.06 ug/ml by CLSI broth microdilution method; set-up: scale not given: the % may be the effect or the level left
[26] = test system: Stenotrophomonas maltophilia; assay: Antibacterial activity against Stenotrophomonas maltophilia assessed as susceptible isolates at minimum inhibitory concentration of 2 ug/ml by CLSI broth microdilution method; set-up: scale not given: the % may be the effect or the level left
[27] = test system: Stenotrophomonas maltophilia; assay: Antibacterial activity against Stenotrophomonas maltophilia assessed as susceptible isolates at minimum inhibitory concentration of 16 ug/ml by CLSI broth microdilution method; set-up: scale not given: the % may be the effect or the level left
Acinetobacter baumannii [28] = assay: Antibacterial activity against Acinetobacter baumannii assessed as susceptible isolates at minimum inhibitory concentration of <=0.06 ug/ml by CLSI broth microdilution method; set-up: scale not given: the % may be the effect or the level left
Acinetobacter baumannii [29] = assay: Antibacterial activity against Acinetobacter baumannii assessed as susceptible isolates at minimum inhibitory concentration of 0.25 ug/ml by CLSI broth microdilution method; set-up: scale not given: the % may be the effect or the level left
Acinetobacter baumannii [30] = assay: Antibacterial activity against Acinetobacter baumannii assessed as susceptible isolates at minimum inhibitory concentration of 1 ug/ml by CLSI broth microdilution method; set-up: scale not given: the % may be the effect or the level left
Acinetobacter baumannii [31] = assay: Antibacterial activity against Acinetobacter baumannii assessed as susceptible isolates at minimum inhibitory concentration of 4 ug/ml by CLSI broth microdilution method; set-up: scale not given: the % may be the effect or the level left
Pseudomonas aeruginosa [32] = assay: Antibacterial activity against Amikacin-resistant Pseudomonas aeruginosa assessed as susceptible isolates at minimum inhibitory concentration of 0.5 ug/ml by CLSI broth microdilution method; set-up: scale not given: the % may be the effect or the level left
Pseudomonas aeruginosa [33] = assay: Antibacterial activity against Amikacin-resistant Pseudomonas aeruginosa assessed as susceptible isolates at minimum inhibitory concentration of 1 ug/ml by CLSI broth microdilution method; set-up: scale not given: the % may be the effect or the level left
Pseudomonas aeruginosa [34] = assay: Antibacterial activity against Amikacin-resistant Pseudomonas aeruginosa assessed as susceptible isolates at minimum inhibitory concentration of 8 ug/ml by CLSI broth microdilution method; set-up: scale not given: the % may be the effect or the level left
Pseudomonas aeruginosa [35] = assay: Antibacterial activity against Cefepime-resistant Pseudomonas aeruginosa assessed as susceptible isolates at minimum inhibitory concentration of 0.5 ug/ml by CLSI broth microdilution method; set-up: scale not given: the % may be the effect or the level left
Pseudomonas aeruginosa [36] = assay: Antibacterial activity against Cefepime-resistant Pseudomonas aeruginosa assessed as susceptible isolates at minimum inhibitory concentration of 4 ug/ml by CLSI broth microdilution method; set-up: scale not given: the % may be the effect or the level left
Pseudomonas aeruginosa [37] = assay: Antibacterial activity against Ciprofloxacin-resistant Pseudomonas aeruginosa assessed as susceptible isolates at minimum inhibitory concentration of 4 ug/ml by CLSI broth microdilution method; set-up: scale not given: the % may be the effect or the level left
Klebsiella oxytoca [38] = assay: Antibacterial activity against Klebsiella oxytoca assessed as susceptible isolates at minimum inhibitory concentration of 0.5 ug/ml by CLSI broth microdilution method; set-up: scale not given: the % may be the effect or the level left
Serratia marcescens [39] = assay: Antibacterial activity against Serratia marcescens assessed as susceptible isolates at minimum inhibitory concentration of >16 ug/ml by CLSI broth microdilution method; set-up: scale not given: the % may be the effect or the level left

## COLISTIN
Pseudomonas aeruginosa [1]
  Activity: 99%
Pseudomonas aeruginosa [2]
  Activity: 100%
Pseudomonas aeruginosa [3]
  Activity: 98.2%
Pseudomonas aeruginosa [4]
  Activity: 1.8%
Pseudomonas aeruginosa [5]
  Activity: 100%
Pseudomonas aeruginosa [6]
  Activity: 5.3%
Pseudomonas aeruginosa [7]
  Activity: 100%
Pseudomonas aeruginosa [8]
  Activity: 7.3%
Serratia marcescens [9]
  Activity: 1.9%
Serratia marcescens [10]
  Activity: 0%
Serratia marcescens [11]
  Activity: 0%
Proteus mirabilis
  Activity: 0%
Enterobacter cloacae [12]
  Activity: 84.9%
Enterobacter cloacae [13]
  Activity: 83.9%
Enterobacter cloacae [14]
  Activity: 82.3%
Enterobacter cloacae [15]
  Activity: 1.6%
Klebsiella pneumoniae [16]
  Activity: 97.9%
Klebsiella pneumoniae [17]
  Activity: 10.5%
Klebsiella pneumoniae [18]
  Activity: 0.8%
Klebsiella pneumoniae [19]
  Activity: 0%
Pseudomonas aeruginosa [20]
  Activity: 98.9%
Escherichia coli [21]
  Activity: 99.4%
Escherichia coli [22]
  Activity: 26.1%
Escherichia coli [23]
  Activity: 1.2%
Klebsiella oxytoca [24]
  Activity: 98.1%
[25]
  Activity: 0%
[26]
  Activity: 15.7%
[27]
  Activity: 56.6%
Acinetobacter baumannii [28]
  Activity: 0%
Acinetobacter baumannii [29]
  Activity: 0%
Acinetobacter baumannii [30]
  Activity: 74.2%
Acinetobacter baumannii [31]
  Activity: 93.5%
Pseudomonas aeruginosa [32]
  Activity: 5.3%
Pseudomonas aeruginosa [33]
  Activity: 42.1%
Pseudomonas aeruginosa [34]
  Activity: 97.4%
Pseudomonas aeruginosa [35]
  Activity: 6.8%
Pseudomonas aeruginosa [36]
  Activity: 100%
Pseudomonas aeruginosa [37]
  Activity: 98.6%
Klebsiella oxytoca [38]
  Activity: 74.1%
Serratia marcescens [39]
  Activity: 100%

— ChEMBL document CHEMBL1671673, “In vitro activity of colistin (polymyxin E) against 3,480 isolates of gram-negative bacilli obtained from patients in Canadian hospitals in the CANWARD study, 2007-2008” (Antimicrob Agents Chemother, 2009)
